Assay results from patent US8507518B2, “Method of treating mantle cell lymphoma” (Mayo Foundation for Medical Education and Research, priority 2003, dated 2013).

Key:
mantle cell lymphoma [1] = assay: Phase II trial of single-agent CCI-779, 250 mg IV weekly, in relapsed mantle cell lymphoma (NCCTG); assay type: in vivo, human
Procedure: The ability of a CCI-779 to treat or inhibit mantle cell lymphoma was evaluated in a clinical trial. Briefly, 18 patients (mean age 72 years, range 38-89 years) were treated with an intravenous dose of 250 mg CCI-779 on days 1, 8, 15, and 22 of a 4 week treatment cycle, for up to a maximum of 12 cycles. Of these patients, 15 were stage IV, 2 were stage III, and 1 was stage II. […] Only 3 patients progressed before the end of the cycle. Based on the results obtained in this clinical trial, CCI-779 is useful in the treatment or inhibition of mantle cell lymphoma.
This study was conducted through the North Central Cancer Treatment Group (NCCTG) cooperative group. Patients were eligible for this trial if they had previously received therapy and had relapsed. There was no limit on the number of prior therapies. All histologies were confirmed to be mantle cell lymphoma by central pathology review. Cyclin-D1 positivity was required by immunohistochemistry or t(11;14) detected by FISH. Patients were required to have measurable disease with a lymph node or tumor mass≧2 cm or malignant lymphocytosis with an ALC≧5,000; a life expectancy of ≧3 months, ECOG performance status of 0, 1, or 2; absolute neutrophil count (ANC)≧1,000; platelets≧75,000; hemoglobin≧8 g/dL; serum creatinine≦2× the upper limit of normal (UNL); serum bilirubin≦1.5 UNL; serum cholesterol≦350 mg/dL; and triglycerides≦400 mg/dL. Patients could not have known central nervous system involvement or HIV infection.
(§1) Patients were treated with a flat dose of 250 mg of CCI-779 diluted in 250 mL of normal saline and delivered IV over 30 minutes. Patients were pretreated with diphenhydramine 25-50 mg IV. Treatment was weekly and a cycle was considered 4 weeks. A complete blood count was performed each week and a full dose delivered if the platelet count was ≧50,000 and the ANC≧1000 and there was no grade 3 non-hematologic toxicity (using the NCI Common Toxicity Criteria version 2). […] Patients were not to receive prophylactic white blood cell growth factors to maintain dosing but could receive them at time of neutropenia at physician discretion. Erythropoietin could be used.
Patients were restaged after 1, 3, and 6 cycles and the response assessed as per the international workshop criteria. [B. D. Cheson, et al., “Report of an International Workshop to Standardize Response Criteria for Non-Hodgkin's Lymphomas”, Journal of Clinical Oncology, Vol 17, Issue 4 (April), 1999: 1244]. Patients who progressed anytime or those patients with stable disease after 6 cycles went off study.
A single stage phase II study with an interim analysis was conducted to assess the proportion of previously treated mantle cell lymphoma patients who achieved a PR or better after treatment with CCI-779. This trial was designed to test the null hypothesis that the true response rate was at most 0.05. The smallest response rate that would indicate that this regimen was worth further study in this patient population was 0.20. The design was generated based on the parameters and assumptions of a two-stage Simon MinMax™ design, but where accrual was not suspended for the interim analysis. This study design required a maximum of 32 evaluable patients, where the interim analysis was performed after 18 patients had been accrued and followed for at least 24 weeks. An additional 3 patients were accrued to this cohort (for a maximum of 35 patients overall) to account for the possibilities of ineligibility, withdrawal from study prior to drug administration, or major violations. However, only the first 32 evaluable patients were used to evaluate the decision criteria for this design. At least one response in the first 18 evaluable patients needed to be observed in the interim analysis to continue accrual. At the time of the final analyses, a total of four or more responses were required to indicate that this regimen warrants further evaluation in this patient population. […]

[2] = Safety and tolerability in the phase II trial of CCI-779 250 mg IV weekly; assay type: in vivo, human
Procedure: as §1
All 35 patients were included in the analysis of safety and tolerability. During the 30 minute infusion, CCI-779 was well-tolerated and there were no significant toxicities that occurred. Thrombocytopenia was the cause of most dose reductions and was rapidly reversible with drug delays of typically only one week. Only three patients required platelet transfusions, and four patients required red blood cell transfusions. Thirteen patients experienced grade 3 infections without concomitant neutropenia; two patients had febrile neutropenia and three had infection (grade 3) with neutropenia. […] The conclusion was that this was idiopathic Bell's palsy and indeed it eventually resolved. A possible relationship to CCI-779 could not be established nor eliminated. The patient who experienced blurred vision was diagnosed with retinitis due to reactivation of cytomegalovirus (CMV) infection.

mantle cell lymphoma [3] = assay: Phase II study of low dose single-agent CCI-779, 25 mg/week, in relapsed mantle cell lymphoma; assay type: in vivo, human
Procedure: Eleven patients (4 refractory, […], ranging from 55 to 85 years old) with MCL were enrolled in a Phase II study of CCI-779 and were treated as described in Example 1 above, with the exception that they received a 10-fold lower dose than in Example 1, i.e., 25 mg/week. Eight patients (73%) were in stage 4, two (18%) in stage 3, and 4 (36%) had ≧2 extranodal sites. Patients had received a median of 3 prior therapies (range, 1-7) and 3 were refractory to their last treatment.

[4] = Stability of CCI-779 in parenteral cosolvent formulation with antioxidant/chelating agent; assay type: physicochemical; settings: citric acid at a concentration of less than 0.01% w/v
Source text: In this embodiment, the stability of a CCI-779 in parenterally acceptable alcoholic cosolvents is enhanced by addition of an antioxidant to the formulation. Acceptable antioxidants include, but are not limited to, citric acid, d,l-α-tocopherol, BHA, BHT, monothioglycerol, ascorbic acid, propyl gallate, and mixtures thereof. Generally, the parenteral formulations useful in this embodiment of the invention will contain an antioxidant component(s) in a concentration ranging from 0.001% to 1% w/v, or 0.01% to 0.5% w/v, of the cosolvent concentrate, although lower or higher concentrations may be desired. Of the antioxidants, d,l-α-tocopherol is particularly desirable and is used at a concentration of 0.01 to 0.1% w/v with a preferred concentration of 0.075% w/v of the cosolvent concentrate.
Examples of such chelating agents include, e.g., citric acid, acetic acid, and ascorbic acid (which may function as both a classic antioxidant and a chelating agent in the present formulations). Other chelating agents include such materials as are capable of binding metal ions in solution, such as ethylene diamine tetra acetic acid (EDTA), its salts, or amino acids such as glycine are capable of enhancing the stability of a CCI-779. […] Optimal concentrations for the selected antioxidant(s) can be readily determined by one of skill in the art, based upon the information provided herein.

[5] = overall, median follow-up 11 months

## CO[C@H]1C[C@@H]2CC[C@@H](C)[C@@](O)(O2)C(=O)C(=O)N2CCCC[C@H]2C(=O)O[C@H]([C@H](C)C[C@@H]2CC[C@@H](OC(=O)C(C)(CO)CO)[C@H](OC)C2)CC(=O)[C@H](C)/C=C(\C)[C@@H](O)[C@@H](OC)C(=O)[C@H](C)C[C@H](C)/C=C/C=C/C=C/1C [CCI-779, rapamycin 42-ester with 3-hydroxy-2-(hydroxymethyl)-2-methylpropionic acid]
Mantle cell lymphoma [1]; 13/34 patients, 250 mg IV weekly, 90% CI 24%-54%
  overall response rate (ORR): 38%
Mantle cell lymphoma [1]; 13 responders, 95% CI 4-13.2 months
  median duration of response: 5.7 months
Mantle cell lymphoma [1]; 18 patients, 250 mg IV days 1, 8, 15, 22 of 4 week cycle, 95% CI 24%-68%
  overall response rate: 44.4%
Mantle cell lymphoma [1]; 18 patients, 250 mg IV weekly
  patients progressed before the end of the cycle: 3 patients
  patients with complete response (CR): One
  patients with partial response (PR): 7 patients
Mantle cell lymphoma [1]; 34 patients, 250 mg IV weekly
  number of CR: 1
  number of PRs: 12
Mantle cell lymphoma [1]; 95% CI 3.8-9.4 months
  median time to progression: 6.2 months
Mantle cell lymphoma [1]; 95% CI 6.7 months to not yet reached
  median overall survival: 12 months
Mantle cell lymphoma [1]; of 13 responders
  responses after 4 months evaluation: 1
  responses after 8 months evaluation: 1
  responses after the first cycle evaluation: Eight
  responses documented after 3 cycles: 3
Mantle cell lymphoma [1]; [5]
  patients who have died: 22 patients
  patients with disease progression: 29 patients
Mantle cell lymphoma [1]; range 1-8
  median time to response: 1 month
Mantle cell lymphoma [1]; single agent
  anti-tumor activity in relapsed MCL: substantial anti-tumor activity
[2]; 35 patients
  adverse event, all grades: AST elevations: 43%
  adverse event, all grades: abnormal taste: 43%
  adverse event, all grades: anemia: 66%
  adverse event, all grades: fatigue: 66%
  adverse event, all grades: hypercholesterolemia: 40%
  adverse event, all grades: hyperglycemia: 91%
  adverse event, all grades: increased triglycerides: 77%
  adverse event, all grades: infection without concomitant neutropenia: 63%
  adverse event, all grades: loss of appetite: 40%
  adverse event, all grades: mucositis: 71%
  adverse event, all grades: nausea: 49%
  adverse event, all grades: neutropenia: 77%
  adverse event, all grades: rash: 51%
  adverse event, all grades: sensory neurophathy: 37%
  adverse event, all grades: thrombocytopenia: 100%
  adverse event, all grades: weight loss: 46%
  grade 5 events (deaths on treatment): No grade 5 events
  patients requiring platelet transfusions: three
  patients requiring red blood cell transfusions: four
  patients with febrile neutropenia: two
  patients with grade 3 infections without concomitant neutropenia: Thirteen
  patients with infection (grade 3) with neutropenia: three
  tolerability during the 30 minute infusion: well-tolerated
[2]; 95% CI 3-6.2 months
  median time to discontinuation of treatment: 3.7 months
[2]; of 28 patients who discontinued treatment
  patients who went off treatment due to adverse reactions: 7
[2]; starting dose 250 mg weekly
  dose reductions necessary: all but 4 patients
Mantle cell lymphoma [3]; 7/11 patients
  overall response rate: 64%
Mantle cell lymphoma [3]; 11 patients
  number of PRs: 7
[4]
  effect of citric acid on stability of CCI-779: enhanced the stability
